From patent US7211572B2 (Japan Tobacco Inc., priority 2003, dated 2007)
Counter-ions that a name gives are not always drawn.

Target: T1, HIV integrase (Human immunodeficiency virus type 1 group M subtype B, UniProt P12497, F1332H)
T1 construct: HIV integrase full length gene; made in house; host or cells: Escherichia coli BL21(DE3), plasmid pET21a-INH
Assay: Determination of enzyme (HIV integrase) inhibitory activity
Type: biochemical
Details: recombinant HIV integrase (F185H), strand transfer ELISA, absorbance at 450 nm
How it was run: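 Full-length integrase with F185H, expressed in E. coli and purified, was reacted for 60 min at 37 °C with compound and biotinylated donor DNA bound to streptavidin plates. Target DNA was added for 10 min, then anti-digoxigenin-peroxidase detection at A450; IC50 from % inhibition versus enzyme-free blank.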

Structure (SMILES)	IC50
COc1ccccc1-c1cn2ccn(Cc3cccc(Cl)c3)c(=O)c2c(O)c1=O [Example 132, 2-(3-chlorobenzyl)-9-hydroxy-7-(2-methoxyphenyl)-2H-pyrido[1,2-a]pyrazine-1,8-dione hydrochloride]	10 to 100 nM
COc1ccc(-c2cn3ccn(Cc4cccc(Cl)c4)c(=O)c3c(O)c2=O)cc1 [Example 133, 2-(3-chlorobenzyl)-9-hydroxy-7-(4-methoxyphenyl)-2H-pyrido[1,2-a]pyrazine-1,8-dione hydrochloride]	< 10 nM
CCc1cn2ccn(Cc3cccc(Cl)c3)c(=O)c2c(O)c1=O [Example 134, 2-(3-chlorobenzyl)-7-ethyl-9-hydroxy-2H-pyrido[1,2-a]pyrazine-1,8-dione hydrochloride]	10 to 100 nM
Cc1cccc(C)c1-c1cn2ccn(Cc3cccc(Cl)c3)c(=O)c2c(O)c1=O [Example 135, 2-(3-chlorobenzyl)-7-(2,6-dimethylphenyl)-9-hydroxy-2H-pyrido[1,2-a]pyrazine-1,8-dione hydrochloride]	10 to 100 nM
O=c1c(-c2cccc(O)c2)cn2ccn(Cc3cccc(Cl)c3)c(=O)c2c1O [Example 136, 2-(3-chlorobenzyl)-9-hydroxy-7-(3-hydroxyphenyl)-2H-pyrido[1,2-a]pyrazine-1,8-dione]	< 10 nM
O=C(c1ccccc1)c1cn2ccn(Cc3cccc(Cl)c3)c(=O)c2c(O)c1=O [Example 137, 7-benzoyl-2-(3-chlorobenzyl)-9-hydroxy-2H-pyrido[1,2-a]pyrazine-1,8-dione hydrochloride]	10 to 100 nM
CCc1ccccc1-c1cn2ccn(Cc3cccc(Cl)c3)c(=O)c2c(O)c1=O [Example 138, 2-(3-chlorobenzyl)-7-(2-ethylphenyl)-9-hydroxy-2H-pyrido[1,2-a]pyrazine-1,8-dione hydrochloride]	10 to 100 nM
CC(C)c1cn(Cc2cccc(Cl)c2)c(=O)c2c(O)c(=O)c(-c3cccc(Cl)c3)cn12 [Example 139, 2-(3-chlorobenzyl)-7-(3-chlorophenyl)-9-hydroxy-4-isopropyl-2H-pyrido[1,2-a]pyrazine-1,8-dione]	10 to 100 nM
O=c1c(Cc2ccccc2)cn2ccn(Cc3cccc(Cl)c3)c(=O)c2c1O [Example 140, 7-benzyl-2-(3-chlorobenzyl)-9-hydroxy-2H-pyrido[1,2-a]pyrazine-1,8-dione hydrochloride]	10 to 100 nM
O=c1c(-c2ccccc2O)cn2ccn(Cc3cccc(Cl)c3)c(=O)c2c1O [Example 141, 2-(3-chlorobenzyl)-9-hydroxy-7-(2-hydroxyphenyl)-2H-pyrido[1,2-a]pyrazine-1,8-dione]	< 10 nM
O=c1c(-c2ccc(O)cc2)cn2ccn(Cc3cccc(Cl)c3)c(=O)c2c1O [Example 142, 2-(3-chlorobenzyl)-9-hydroxy-7-(4-hydroxyphenyl)-2H-pyrido[1,2-a]pyrazine-1,8-dione]	10 to 100 nM
Cn1cc2c(c(O)c1=O)C(=O)N(Cc1cccc(C(F)(F)F)c1)CC2 [Example 143, 8-hydroxy-6-methyl-2-(3-trifluoromethylbenzyl)-2,3,4,6-tetrahydro-2,6-naphthyridine-1,7-dione]	100 to 1000 nM
COc1cccc(CN2CCc3cn(C)c(=O)c(O)c3C2=O)c1 [Example 144, 8-hydroxy-2-(3-methoxybenzyl)-6-methyl-2,3,4,6-tetrahydro-2,6-naphthyridine-1,7-dione]	10 to 100 nM
Cn1nc2ccn(Cc3cccc(Cl)c3)c(=O)c2c(O)c1=O [Example 145, 6-(3-chlorobenzyl)-4-hydroxy-2-methyl-2,6-dihydropyrido[4,3-c]pyridazine-3,5-dione]	100 to 1000 nM
O=c1ccn2ncn(Cc3cccc(Cl)c3)c(=O)c2c1O [Example 146, 3-(3-chlorobenzyl)-5-hydroxy-3H-pyrido[2,1-f][1,2,4]triazine-4,6-dione]	100 to 1000 nM
COC(=O)c1cn2ccn(Cc3cccc(Cl)c3)c(=O)c2c(O)c1=O [Example 147, methyl 2-(3-chlorobenzyl)-9-hydroxy-1,8-dioxo-1,8-dihydro-2H-pyrido[1,2-a]pyrazine-7-carboxylate hydrochloride]	10 to 100 nM
Cn1ccnc1-c1cn2ccn(Cc3cccc(Cl)c3)c(=O)c2c(O)c1=O [Example 148, 2-(3-chlorobenzyl)-9-hydroxy-7-(1-methyl-1H-imidazol-2-yl)-2H-pyrido[1,2-a]pyrazine-1,8-dione hydrochloride]	10 to 100 nM
CC(C)C(=O)c1cn2ccn(Cc3cccc(Cl)c3)c(=O)c2c(O)c1=O [Example 149, 2-(3-chlorobenzyl)-9-hydroxy-7-isobutyryl-2H-pyrido[1,2-a]pyrazine-1,8-dione hydrochloride]	< 10 nM
CC(C)OC(=O)c1cn2ccn(Cc3cccc(Cl)c3)c(=O)c2c(O)c1=O [Example 150, isopropyl 2-(3-chlorobenzyl)-9-hydroxy-1,8-dioxo-1,8-dihydro-2H-pyrido[1,2-a]pyrazine-7-carboxylate]	10 to 100 nM
O=c1ccn2ccn(Cc3ccc(Cl)cc3)c(=O)c2c1O [Example 151, 2-(4-chlorobenzyl)-9-hydroxy-2H-pyrido[1,2-a]pyrazine-1,8-dione hydrochloride]	10 to 100 nM

Structure (SMILES)	IC50
O=C(O)c1cn2ccn(Cc3cccc(Cl)c3)c(=O)c2c(O)c1=O [Example 152, 2-(3-chlorobenzyl)-9-hydroxy-1,8-dioxo-1,8-dihydro-2H-pyrido[1,2-a]pyrazine-7-carboxylic acid hydrochloride]	100 to 1000 nM
CN(C)C(=O)c1cn2ccn(Cc3cccc(Cl)c3)c(=O)c2c(O)c1=O [Example 153, N,N-dimethyl-2-(3-chlorobenzyl)-9-hydroxy-1,8-dioxo-1,8-dihydro-2H-pyrido[1,2-a]pyrazine-7-carboxamide]	10 to 100 nM
CC(C)NC(=O)c1cn2ccn(Cc3cccc(Cl)c3)c(=O)c2c(O)c1=O [Example 154, 2-(3-chlorobenzyl)-9-hydroxy-1,8-dioxo-1,8-dihydro-2H-pyrido[1,2-a]pyrazine-7-carboxylic acid isopropylamide]	10 to 100 nM
CNC(=O)c1cn2ccn(Cc3cccc(Cl)c3)c(=O)c2c(O)c1=O [Example 155, N-methyl-2-(3-chlorobenzyl)-9-hydroxy-1,8-dioxo-1,8-dihydro-2H-pyrido[1,2-a]pyrazine-7-carboxamide]	< 10 nM
CCN(CC)C(=O)c1cn2ccn(Cc3cccc(Cl)c3)c(=O)c2c(O)c1=O [Example 156, N,N-diethyl-2-(3-chlorobenzyl)-9-hydroxy-1,8-dioxo-1,8-dihydro-2H-pyrido[1,2-a]pyrazine-7-carboxamide]	10 to 100 nM
O=c1ccn2ccn(Cc3ccc(Br)cc3)c(=O)c2c1O [Example 157, 2-(4-bromobenzyl)-9-hydroxy-2H-pyrido[1,2-a]pyrazine-1,8-dione hydrochloride]	10 to 100 nM
O=c1ccn2ccn(Cc3cccc(Br)c3)c(=O)c2c1O [Example 158, 2-(3-bromobenzyl)-9-hydroxy-2H-pyrido[1,2-a]pyrazine-1,8-dione hydrochloride]	10 to 100 nM
CC(C)(C)COC(=O)c1cn2ccn(Cc3cccc(Cl)c3)c(=O)c2c(O)c1=O [Example 159, 2,2-dimethylpropyl 2-(3-chlorobenzyl)-9-hydroxy-1,8-dioxo-1,8-dihydro-2H-pyrido[1,2-a]pyrazine-7-carboxylate]	10 to 100 nM
O=C(OC1CCCCC1)c1cn2ccn(Cc3cccc(Cl)c3)c(=O)c2c(O)c1=O [Example 160, cyclohexyl 2-(3-chlorobenzyl)-9-hydroxy-1,8-dioxo-1,8-dihydro-2H-pyrido[1,2-a]pyrazine-7-carboxylate]	10 to 100 nM
Nc1cn2ccn(Cc3cccc(Cl)c3)c(=O)c2c(O)c1=O [Example 161, 7-amino-2-(3-chlorobenzyl)-9-hydroxy-2H-pyrido[1,2-a]pyrazine-1,8-dione hydrochloride]	10 to 100 nM
Cc1nn(Cc2cccc(Cl)c2)c(=O)c2c(O)c(=O)ccn12 [Example 162, 2-(3-chlorobenzyl)-9-hydroxy-4-methyl-2H-pyrido[1,2-d][1,2,4]triazine-1,8-dione hydrochloride]	10 to 100 nM
O=c1c(-c2nccs2)cn2ccn(Cc3cccc(Cl)c3)c(=O)c2c1O [Example 163, 2-(3-chlorobenzyl)-9-hydroxy-7-(thiazol-2-yl)-2H-pyrido[1,2-a]pyrazine-1,8-dione hydrochloride]	< 10 nM
O=c1c(-c2nnc[nH]2)cn2ccn(Cc3cccc(Cl)c3)c(=O)c2c1O [Example 164, 2-(3-chlorobenzyl)-9-hydroxy-7-(4H-1,2,4-triazol-3-yl)-2H-pyrido[1,2-a]pyrazine-1,8-dione hydrochloride]	10 to 100 nM
CC(=O)Nc1cn2ccn(Cc3cccc(Cl)c3)c(=O)c2c(O)c1=O [Example 165, N-[2-(3-chlorobenzyl)-9-hydroxy-1,8-dioxo-1,8-dihydro-2H-pyrido[1,2-a]pyrazin-7-yl]acetamide]	10 to 100 nM
COc1cc(Cl)ccc1Cn1ccn2ccc(=O)c(O)c2c1=O [Example 166, 2-(4-chloro-2-methoxybenzyl)-9-hydroxy-2H-pyrido[1,2-a]pyrazine-1,8-dione hydrochloride]	10 to 100 nM
NC(=O)c1cn2ccn(Cc3cccc(Cl)c3)c(=O)c2c(O)c1=O [Example 167, 2-(3-chlorobenzyl)-9-hydroxy-1,8-dioxo-1,8-dihydro-2H-pyrido[1,2-a]pyrazine-7-carboxamide]	10 to 100 nM
COc1c(Cl)cccc1Cn1ccn2ccc(=O)c(O)c2c1=O [Example 168, 2-(3-chloro-2-methoxybenzyl)-9-hydroxy-2H-pyrido[1,2-a]pyrazine-1,8-dione hydrochloride]	10 to 100 nM
O=c1ccn2ccn(CCOc3ccccc3Cl)c(=O)c2c1O [Example 169, 2-[2-(2-chlorophenoxy)ethyl]-9-hydroxy-2H-pyrido[1,2-a]pyrazine-1,8-dione hydrochloride]	100 to 1000 nM
O=c1c(-c2ncccn2)cn2ccn(Cc3cccc(Cl)c3)c(=O)c2c1O [Example 170, 2-(3-chlorobenzyl)-9-hydroxy-7-(pyrimidin-2-yl)-2H-pyrido[1,2-a]pyrazine-1,8-dione hydrochloride]	10 to 100 nM
